The source made the active and inactive calls.
Assays:
[1] = test system: HT-29; assay: Anti-necroptotic activity in TSZ induced human HT-29 cells assessed as increase in cell viability pretreated with compound followed by TSZ stimulation and measured after 16 hrs by celltiter-glo luminescent cell viability assay; assay type: functional, cell-based
[2] = Cytotoxicity against human HT-29 cells assessed as reduction in cell viability by celltiter-glo luminescent cell viability assay; assay type: toxicity, cell-based
[3] = target: T1, Receptor-interacting serine/threonine-protein kinase 1 (Homo sapiens, UniProt Q13546); assay: Binding affinity to recombinant human wild type partial length RIPK1 (M1 to K305 residues) expressed in bacterial expression system by KINOMEscan TM assay
T1 sequence (Q13546 whole entry): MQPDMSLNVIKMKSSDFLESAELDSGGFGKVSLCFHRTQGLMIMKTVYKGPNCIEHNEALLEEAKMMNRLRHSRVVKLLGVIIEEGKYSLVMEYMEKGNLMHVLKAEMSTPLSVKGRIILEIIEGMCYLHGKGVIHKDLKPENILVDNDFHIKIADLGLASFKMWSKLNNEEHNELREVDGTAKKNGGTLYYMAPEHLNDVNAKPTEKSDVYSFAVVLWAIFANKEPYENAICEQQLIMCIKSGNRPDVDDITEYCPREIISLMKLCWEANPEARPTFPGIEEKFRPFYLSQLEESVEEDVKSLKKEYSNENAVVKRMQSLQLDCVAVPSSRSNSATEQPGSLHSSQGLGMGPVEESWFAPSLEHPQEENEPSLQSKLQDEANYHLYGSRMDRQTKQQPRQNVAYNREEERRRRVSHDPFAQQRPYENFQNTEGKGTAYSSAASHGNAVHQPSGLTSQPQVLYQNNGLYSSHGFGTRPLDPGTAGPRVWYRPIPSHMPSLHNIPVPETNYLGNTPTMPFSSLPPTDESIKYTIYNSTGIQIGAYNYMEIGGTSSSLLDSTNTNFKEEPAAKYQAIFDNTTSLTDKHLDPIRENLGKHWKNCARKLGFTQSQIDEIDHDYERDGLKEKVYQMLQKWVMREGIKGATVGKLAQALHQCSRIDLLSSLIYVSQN

[4] = target: T2, Receptor-interacting serine/threonine-protein kinase 3 (Homo sapiens, UniProt Q9Y572); assay: Binding affinity to recombinant human wild type partial length RIPK3 (M1 to Q307 residues) expressed in bacterial expression system by KINOMEscan TM assay
Target sequence in this assay (Q9Y572 whole entry, the tested form may be a part): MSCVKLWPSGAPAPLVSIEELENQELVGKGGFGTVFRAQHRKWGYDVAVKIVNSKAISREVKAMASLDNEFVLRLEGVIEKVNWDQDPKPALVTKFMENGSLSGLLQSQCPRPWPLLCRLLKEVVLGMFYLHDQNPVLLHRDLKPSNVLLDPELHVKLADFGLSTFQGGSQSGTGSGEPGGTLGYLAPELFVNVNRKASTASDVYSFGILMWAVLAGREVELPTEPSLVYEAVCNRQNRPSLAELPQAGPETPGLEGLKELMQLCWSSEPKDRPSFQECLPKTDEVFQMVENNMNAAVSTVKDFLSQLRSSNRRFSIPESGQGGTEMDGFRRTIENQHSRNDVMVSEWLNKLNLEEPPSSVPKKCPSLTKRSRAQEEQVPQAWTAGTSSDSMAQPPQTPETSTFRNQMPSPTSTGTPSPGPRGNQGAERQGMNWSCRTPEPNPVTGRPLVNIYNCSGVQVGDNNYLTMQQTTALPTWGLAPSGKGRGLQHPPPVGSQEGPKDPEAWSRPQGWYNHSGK

[5] = target: T3, Receptor-interacting serine/threonine-protein kinase 1 (Homo sapiens) (UniProt Q13546); assay: Inhibition of RIPK1 in human HT-29 cells assessed as reduction in TSZ induced necroptosis at 25 to 50 nM pretreated with compound followed by TSZ stimulation for 8 hrs by celltiter-glo luminescent cell viability assay relative to control; assay type: cell-based; conditions: dose 25-50 nM
T3 sequence (whole entry): T1 sequence (Q13546 whole entry)

[6] = target: T3, Receptor-interacting serine/threonine-protein kinase 1 (Homo sapiens); assay: Inhibition of RIPK1 in human HT-29 cells assessed as reduction in TSZ induced necroptosis pretreated with compound followed by TSZ stimulation for 8 hrs by celltiter-glo luminescent cell viability assay; assay type: cell-based; conditions: dose 0.4-50 nM, DDE = dose-dependent effect
[7] = target: T3, Receptor-interacting serine/threonine-protein kinase 1 (Homo sapiens); assay: Inhibition of RIPK1 in human HT-29 cells assessed as reduction in TCZ induced necroptosis at 0.2 to 25 nM pretreated with compound followed by TCZ stimulation for 16 hrs by celltiter-glo luminescent cell viability assay; assay type: cell-based; conditions: dose 0.2-25 nM
[8] = target: T4, Receptor-interacting serine/threonine-protein kinase 1 (Mus musculus) (UniProt Q60855); assay: Inhibition of RIPK1 in mouse L929 cells assessed as reduction in TZ induced necroptosis pretreated with compound followed by TZ stimulation for 4 hrs by celltiter-glo luminescent cell viability assay; assay type: cell-based; conditions: dose 0.000781-0.025 µM, DDE = dose-dependent effect
T4 sequence (whole entry): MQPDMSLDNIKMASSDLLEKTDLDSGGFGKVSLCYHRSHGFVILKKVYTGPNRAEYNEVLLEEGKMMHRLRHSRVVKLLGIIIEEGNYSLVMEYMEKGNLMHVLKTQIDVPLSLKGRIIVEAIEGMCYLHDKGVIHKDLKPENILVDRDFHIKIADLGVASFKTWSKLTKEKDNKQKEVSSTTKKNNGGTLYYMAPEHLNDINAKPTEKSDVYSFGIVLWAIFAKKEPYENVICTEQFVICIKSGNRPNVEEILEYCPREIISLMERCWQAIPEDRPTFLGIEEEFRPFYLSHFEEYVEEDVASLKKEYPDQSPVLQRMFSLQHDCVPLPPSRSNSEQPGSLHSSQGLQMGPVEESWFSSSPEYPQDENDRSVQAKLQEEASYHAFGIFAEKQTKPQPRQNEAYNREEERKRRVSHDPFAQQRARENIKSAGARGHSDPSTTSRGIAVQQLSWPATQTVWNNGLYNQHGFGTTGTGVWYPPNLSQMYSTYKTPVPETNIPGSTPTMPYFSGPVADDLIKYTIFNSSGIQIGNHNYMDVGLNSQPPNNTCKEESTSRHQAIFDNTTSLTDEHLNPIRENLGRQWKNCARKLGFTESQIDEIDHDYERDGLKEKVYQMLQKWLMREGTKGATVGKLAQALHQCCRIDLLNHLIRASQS

[9] = test system: HT-29; assay: Inhibition of RIPK1 expression in TSZ induced human HT-29 cells at 1 uM pretreated with compound followed by TSZ stimulation upto 6 hrs by immunoblotting analysis; assay type: functional, cell-based
[10] = target: T3, Receptor-interacting serine/threonine-protein kinase 1 (Homo sapiens); assay: Inhibition of RIPK1 phosphorylation in TSZ induced human HT-29 cells at 1 uM pretreated with compound followed by TSZ stimulation upto 6 hrs by immunoblotting analysis relative to control; assay type: cell-based
[11] = target: T2, Receptor-interacting serine/threonine-protein kinase 3; assay: Inhibition of RIPK3 phosphorylation in TSZ induced human HT-29 cells at 1 uM pretreated with compound followed by TSZ stimulation upto 6 hrs by immunoblotting analysis; assay type: cell-based
Target sequence in this assay (Q9Y572 whole entry, looked up, the tested form may be a part): as the sequence (Q9Y572 whole entry, the tested form may be a part) above

[12] = target: T5, Mixed lineage kinase domain-like protein (Homo sapiens) (UniProt Q8NB16); assay: Inhibition of MLKL phosphorylation in TSZ induced human HT-29 cells at 1 uM pretreated with compound followed by TSZ stimulation upto 6 hrs by immunoblotting analysis; assay type: cell-based
T5 sequence (whole entry): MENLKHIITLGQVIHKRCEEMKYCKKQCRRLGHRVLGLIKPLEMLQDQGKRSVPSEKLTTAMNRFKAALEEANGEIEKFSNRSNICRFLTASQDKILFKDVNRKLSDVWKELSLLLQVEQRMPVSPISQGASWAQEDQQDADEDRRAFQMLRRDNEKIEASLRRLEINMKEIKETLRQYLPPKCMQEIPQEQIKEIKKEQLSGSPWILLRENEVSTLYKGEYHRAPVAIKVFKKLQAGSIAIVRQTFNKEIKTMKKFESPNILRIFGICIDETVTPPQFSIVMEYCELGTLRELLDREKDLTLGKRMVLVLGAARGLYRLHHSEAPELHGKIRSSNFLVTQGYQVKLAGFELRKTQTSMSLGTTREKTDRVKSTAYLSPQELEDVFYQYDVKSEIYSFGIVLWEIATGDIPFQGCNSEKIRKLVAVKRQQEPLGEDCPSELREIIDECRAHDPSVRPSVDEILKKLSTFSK

[13] = test system: HT-29; assay: Inhibition of TSZ induced RIPK1-RIPK3 necrosome formation in human HT-29 cells at 1 uM measured after 6 hrs by immunoblot analysis; assay type: functional, cell-based
[14] = test system: Mus musculus; assay: Anti-necroptosis activity against TNFalpha-induced C57BL/6 mouse model of systemic inflammatory response syndrome assessed as protection against hypothermia at 20 to 40 mg/kg, IG pretreated for 1 hr followed by TNFalpha stimulation relative to control; assay type: functional; conditions: dose 20-40 mg/kg
[15] = test system: Mus musculus; assay: Anti-necroptosis activity against TNFalpha-induced C57BL/6 mouse model of systemic inflammatory response syndrome assessed as reduction in IL-1 beta level administered IG pretreated for 1 hr followed by TNFalpha stimulation for 2 hrs; assay type: functional, organism-based; conditions: dose 10-40 mg/kg, time 3.0 hrs, DDE = dose-dependent effect
[16] = test system: Mus musculus; assay: Anti-necroptosis activity against TNFalpha-induced C57BL/6 mouse model of systemic inflammatory response syndrome assessed as reduction in IL-6 level administered IG pretreated for 1 hr followed by TNFalpha stimulation for 2 hrs; assay type: functional, organism-based; conditions: dose 10-40 mg/kg, time 3.0 hrs, DDE = dose-dependent effect
[17] = test system: Mus musculus; assay: Antialzheimer activity against STZ induced C57BL/6 mouse model of cognitive dysfunction assessed as increase in central distance of mouse at 1 mg/kg, IG administered once daily for 7 days; assay type: functional, organism-based; conditions: time 7.0 day
[18] = test system: Mus musculus; assay: Antialzheimer activity against STZ induced C57BL/6 mouse model of cognitive dysfunction assessed as prolonged exploration time for new objects at 1 mg/kg, IG administered once daily for 7 days by novel object recognition test; assay type: functional, organism-based; conditions: time 7.0 day
[19] = test system: Mus musculus; assay: Antialzheimer activity against STZ induced C57BL/6 mouse model of cognitive dysfunction assessed as increase in preference index at 1 mg/kg, IG administered once daily for 7 days by novel object recognition test; assay type: functional, organism-based; conditions: time 7.0 day
[20] = test system: Mus musculus; assay: Antialzheimer activity against STZ induced C57BL/6 mouse model of cognitive dysfunction assessed as increase in number of active avoidance time at 1 mg/kg, IG administered once daily and measured for 4 days by active avoidance test; assay type: functional, organism-based; conditions: time 4.0 day
[21] = test system: Mus musculus; assay: Antialzheimer activity against STZ induced C57BL/6 mouse model of cognitive dysfunction assessed as reduction in latency at 1 mg/kg, IG administered once daily for 7 days; assay type: functional, organism-based; conditions: time 7.0 day
[22] = test system: Mus musculus; assay: Antialzheimer activity against STZ induced C57BL/6 mouse model of cognitive dysfunction assessed as increase in percentage of quadrant time at 1 mg/kg, IG administered once daily for 7 days; assay type: functional, organism-based; conditions: time 7.0 day
[23] = test system: Mus musculus; assay: Antialzheimer activity against STZ induced C57BL/6 mouse model of cognitive dysfunction assessed as increase in quadrant time at 1 mg/kg, IG administered once daily for 7 days; assay type: functional, organism-based; conditions: time 7.0 day
[24] = species: Mus musculus; assay: Antialzheimer activity against STZ induced C57BL/6 mouse model of cognitive dysfunction assessed as restoration of hippocampal cell number by Nissl staining based analysis; assay type: functional, organism-based
[25] = species: Mus musculus; assay: Antialzheimer activity against STZ induced C57BL/6 mouse model of cognitive dysfunction assessed as restoration of hippocampal morphology by Nissl staining based analysis; assay type: functional, organism-based
[26] = species: Mus musculus; assay: Antialzheimer activity against STZ induced C57BL/6 mouse model of cognitive dysfunction assessed as decrease in p-Tau level in hippocampus by Western blot analysis; assay type: functional, organism-based
[27] = species: Mus musculus; assay: Antialzheimer activity against STZ induced C57BL/6 mouse model of cognitive dysfunction assessed as decrease in p-Tau level in frontal cortex by Western blot analysis; assay type: functional, organism-based
[28] = Toxicity in C57BL/6 mouse assessed as effect on heart by H and E staining based analysis; assay type: tissue-based; conditions: in vivo
[29] = Toxicity in C57BL/6 mouse assessed as effect on liver by H and E staining based analysis; assay type: tissue-based; conditions: in vivo
[30] = Toxicity in C57BL/6 mouse assessed as effect on lungs by H and E staining based analysis; conditions: in vivo
[31] = Toxicity in C57BL/6 mouse assessed as effect on spleen by H and E staining based analysis; assay type: tissue-based; conditions: in vivo
[32] = Toxicity in C57BL/6 mouse assessed as effect on kidney by H and E staining based analysis; assay type: tissue-based; conditions: in vivo
[33] = Cytotoxicity against mouse primary neurons assessed as reduction in cell viability at 0.256 to […] by celltiter-glo luminescent cell viability assay; assay type: toxicity, cell-based; conditions: neuron, dose 0.256-[…]
[34] = species: Mus musculus; assay: Antialzheimer activity against STZ induced C57BL/6 mouse model of cognitive dysfunction assessed as downregulation of IL-1 beta in frontal cortex; assay type: functional, organism-based
[35] = species: Mus musculus; assay: Antialzheimer activity against STZ induced C57BL/6 mouse model of cognitive dysfunction assessed as downregulation of IL-1 beta in hippocampus; assay type: functional, organism-based
[36] = species: Mus musculus; assay: Antialzheimer activity against STZ induced C57BL/6 mouse model of cognitive dysfunction assessed as decrease of TNF-alpha expression in frontal cortex; assay type: functional, organism-based
[37] = species: Mus musculus; assay: Antialzheimer activity against STZ induced C57BL/6 mouse model of cognitive dysfunction assessed as decrease of TNF-alpha expression in hippocampus; assay type: functional, organism-based
[38] = species: Mus musculus; assay: Antialzheimer activity against STZ induced C57BL/6 mouse assessed as decrease in p-RIPK1/RIPK1 ratio in frontal cortex; assay type: functional, organism-based
[39] = species: Mus musculus; assay: Antialzheimer activity against STZ induced C57BL/6 mouse assessed as decrease in p-RIPK1/RIPK1 ratio in hippocampus; assay type: functional, organism-based
[40] = species: Mus musculus; assay: Antialzheimer activity against STZ induced C57BL/6 mouse assessed as decrease in p-RIPK3/RIPK3 ratio in frontal cortex; assay type: functional, organism-based
[41] = species: Mus musculus; assay: Antialzheimer activity against STZ induced C57BL/6 mouse assessed as decrease in p-RIPK3/RIPK3 ratio in hippocampus; assay type: functional, organism-based

O=C1CC(C(=O)Nc2nc3cc(Oc4ccc(F)c(NC(=O)Cc5cccc(OC(F)(F)F)c5)c4)c(F)cc3s2)C1
> 5000 nM: Kd [4]
100%: inhibition [5] | inhibition [10] | Activity [14]
active: inhibition [6] Dde | inhibition [7] | Activity [8] Dde | inhibition [9] | inhibition [11] | inhibition [12] | inhibition [13] | Activity [15] Dde | Activity [16] Dde | Activity [17] | Activity [18] | Activity [19] | Activity [20] | Activity [21] | Activity [22] | Activity [23] | Activity [24] | Activity [25] | Activity [26] | Activity [27] | Activity [34] | Activity [35] | Activity [36] | Activity [37] | Activity [38] | Activity [39] | Activity [40] | Activity [41]
8.6 nM: Kd [3]
> 50000 nM: CC50 [2]
2 nM: EC50 [1]
Non-Toxic: Activity [28] | Activity [29] | Activity [30] | Activity [31] | Activity [32] | Activity [33]

O=C(Cc1cccc(OC(F)(F)F)c1)Nc1cc(Oc2cc3nc(NC(=O)C4CC4F)sc3cc2F)ccc1F (stereo not given)
18 nM: Kd [3]
> 5000 nM: Kd [4]
> 50000 nM: CC50 [2]
10 nM: EC50 [1]
